Results as given in the NIST ThermoML archive (doi:10.1021/je800026p).
± gives the expanded uncertainty stated by the source.

Experiment: xn = mol fraction of the nth substance listed
Conditions: 101 kPa, Liquid; for speed of sound: Sing-around technique in a fixed-path interferometer; for mass density: Vibrating tube method

CCCCCCOCCOCCO [2-(2-hexyloxyethoxy)ethanol] + CCCCN(CCCC)CCCC
Conditions | mass density, 288.15 K [kg/m3] | mass density, 293.15 K [kg/m3] | mass density, 298.15 K [kg/m3] | mass density, 303.15 K [kg/m3] | mass density, 308.15 K [kg/m3] | speed of sound, 288.15 K [m/s] | speed of sound, 293.15 K [m/s] | speed of sound, 298.15 K [m/s] | speed of sound, 303.15 K [m/s] | speed of sound, 308.15 K [m/s]
x1 = 0.1168 | 797.427 ± 0.62 | 793.696 ± 0.62 | 789.759 ± 0.62 | 785.812 ± 0.61 | 782.055 ± 0.61 | 1294 ± 2.1 | 1274.9 ± 2.1 | 1256 ± 2.1 | 1237.3 ± 2.1 | 1219 ± 2.1
x1 = 0.1659 | 804.49 ± 0.63 | 800.716 ± 0.63 | 796.756 ± 0.62 | 792.8 ± 0.62 | 788.975 ± 0.62 | 1298.2 ± 2.1 | 1279.2 ± 2.1 | 1260.3 ± 2.1 | 1241.7 ± 2.1 | 1223.4 ± 2.1
x1 = 0.2092 | 810.815 ± 0.64 | 806.993 ± 0.63 | 803.027 ± 0.63 | 799.078 ± 0.63 | 795.2 ± 0.62 | 1302.1 ± 2.1 | 1283.1 ± 2.1 | 1264.3 ± 2.1 | 1245.8 ± 2.1 | 1227.5 ± 2.1
x1 = 0.2589 | 818.158 ± 0.64 | 814.291 ± 0.64 | 810.334 ± 0.64 | 806.371 ± 0.63 | 802.458 ± 0.63 | 1306.8 ± 2.1 | 1287.9 ± 2.1 | 1269.2 ± 2.1 | 1250.8 ± 2.1 | 1232.5 ± 2.1
x1 = 0.3155 | 826.596 ± 0.65 | 822.69 ± 0.65 | 818.738 ± 0.64 | 814.795 ± 0.64 | 810.825 ± 0.64 | 1312.6 ± 2.1 | 1293.8 ± 2.1 | 1275.2 ± 2.1 | 1256.8 ± 2.1 | 1238.6 ± 2.1
x1 = 0.3564 | 832.755 ± 0.66 | 828.829 ± 0.65 | 824.867 ± 0.65 | 820.924 ± 0.65 | 816.944 ± 0.64 | 1316.9 ± 2.1 | 1298.2 ± 2.1 | 1279.7 ± 2.1 | 1261.4 ± 2.1 | 1243.2 ± 2.1
x1 = 0.383 | 836.791 ± 0.66 | 832.842 ± 0.66 | 828.881 ± 0.65 | 824.93 ± 0.65 | 820.957 ± 0.65 | 1319.8 ± 2.1 | 1301.2 ± 2.1 | 1282.7 ± 2.1 | 1264.5 ± 2.1 | 1246.4 ± 2.1
x1 = 0.4544 | 847.683 ± 0.67 | 843.729 ± 0.67 | 839.761 ± 0.66 | 835.783 ± 0.66 | 831.821 ± 0.66 | 1328 ± 2.1 | 1309.5 ± 2.1 | 1291.2 ± 2.1 | 1273.2 ± 2.1 | 1255.2 ± 2.1
x1 = 0.5108 | 856.418 ± 0.68 | 852.463 ± 0.68 | 848.467 ± 0.67 | 844.479 ± 0.67 | 840.528 ± 0.67 | 1334.9 ± 2.1 | 1316.5 ± 2.1 | 1298.3 ± 2.1 | 1280.4 ± 2.1 | 1262.6 ± 2.1
x1 = 0.5568 | 863.63 ± 0.69 | 859.691 ± 0.68 | 855.668 ± 0.68 | 851.665 ± 0.68 | 847.701 ± 0.67 | 1340.7 ± 2.1 | 1322.4 ± 2.1 | 1304.3 ± 2.1 | 1286.5 ± 2.1 | 1268.8 ± 2.1
x1 = 0.6107 | 872.206 ± 0.7 | 868.299 ± 0.69 | 864.217 ± 0.69 | 860.198 ± 0.68 | 856.228 ± 0.68 | 1347.7 ± 2.1 | 1329.6 ± 2.1 | 1311.6 ± 2.1 | 1294 ± 2.1 | 1276.4 ± 2.1
x1 = 0.6683 | 881.543 ± 0.71 | 877.641 ± 0.7 | 873.531 ± 0.7 | 869.475 ± 0.69 | 865.486 ± 0.69 | 1355.6 ± 2.1 | 1337.5 ± 2.1 | 1319.7 ± 2.1 | 1302.2 ± 2.1 | 1284.8 ± 2.1
x1 = 0.6924 | 885.505 ± 0.71 | 881.587 ± 0.71 | 877.468 ± 0.7 | 873.41 ± 0.7 | 869.396 ± 0.69 | 1358.9 ± 2.1 | 1340.9 ± 2.1 | 1323.2 ± 2.1 | 1305.8 ± 2.1 | 1288.4 ± 2.1
x1 = 0.7544 | 895.808 ± 0.72 | 891.893 ± 0.72 | 887.746 ± 0.71 | 883.674 ± 0.71 | 879.592 ± 0.7 | 1367.8 ± 2.1 | 1350 ± 2.1 | 1332.3 ± 2.1 | 1315.2 ± 2.1 | 1297.8 ± 2.1
x1 = 0.7963 | 902.873 ± 0.73 | 898.935 ± 0.72 | 894.791 ± 0.72 | 890.73 ± 0.71 | 886.574 ± 0.71 | 1373.9 ± 2.1 | 1356.2 ± 2.1 | 1338.7 ± 2.1 | 1321.6 ± 2.1 | 1304.4 ± 2.1
x1 = 0.858 | 913.335 ± 0.74 | 909.366 ± 0.73 | 905.245 ± 0.73 | 901.206 ± 0.73 | 896.983 ± 0.72 | 1383.2 ± 2.1 | 1365.7 ± 2.1 | 1348.3 ± 2.1 | 1331.5 ± 2.1 | 1314.2 ± 2.1
x1 = 0.9079 | 921.784 ± 0.75 | 917.773 ± 0.74 | 913.7 ± 0.74 | 909.674 ± 0.73 | 905.434 ± 0.73 | 1390.9 ± 2.1 | 1373.6 ± 2.1 | 1356.4 ± 2.1 | 1339.6 ± 2.1 | 1322.3 ± 2.1
x1 = 0.9553 | 929.676 ± 0.76 | 925.674 ± 0.75 | 921.63 ± 0.75 | 917.622 ± 0.74 | 913.46 ± 0.74 | 1398.4 ± 2.1 | 1381.3 ± 2.1 | 1364.2 ± 2.1 | 1347.6 ± 2.1 | 1330.2 ± 2.1
